Laboratory results from US9717719B2, “Treatment, prevention, and reversal of alcohol-induced liver disease” (Rhode Island Hospital, priority 2006, dated 2017).
Entries after “also recorded” stand apart in the source; their conditions may differ.

Key:
Assay type in all cases: in vivo, rat
Long Evans rats = assay: Liver histology in the chronic ethanol exposure model; conditions: for extents of micro- and macrosteatosis / liver histology (hepatic architecture): ethanol-fed rats; for liver histology (hepatic architecture): relative to vehicle
Excerpt: (§1) Chow fed control rats were also studied. Rats were monitored daily to ensure equivalent food consumption and maintenance of body weight. […] At the conclusion of the experiment, rats were anesthetized with vaporized isofluorane (SurgiVet, Inc. Waukesha, Wis.), and liver and blood were harvested for analysis. Liver tissue samples were immersion fixed in Histochoice (Amresco Corp., Solon, Ohio) and embedded in paraffin. Adjacent histological sections were stained with Hematoxylin and Eosin or Gomori's Trichrome and examined under code. In addition, liver tissue samples were snap-frozen in a dry ice methanol bath and then stored at −80° C. for later mRNA and protein studies. Throughout the experiment, rats were housed under humane conditions and kept on a 12-hour light/dark cycle with free access to food. All experiments were performed in accordance with protocols that conform to guidelines established by the National Institutes of Health and were approved by Institutional Animal Care and Use Committee at the Lifespan-Rhode Island Hospital.

[1] = test system: liver mRNA levels of albumin, ASBT, GFAP, KCR, desmin, and collagen; assay: Liver cell profiling by qRT-PCR; conditions: for GFAP mRNA / collagen mRNA / desmin mRNA / ASBT mRNA / albumin mRNA: relative to vehicle
Excerpt: Adult male (˜200-250 g) Long Evans rats (Harlan Sprague Dawley, Inc., Indianapolis, Ind.) were pair-fed with isocaloric liquid diets (BioServ, Frenchtown, N.J.) containing 0% (control) or 37% ethanol by caloric content (9.2% v/v) for 8 weeks. During the week prior to initiating the experiment, rats were adapted to the ethanol-containing diets by sequentially feeding them for two days each with diets containing 8%, 17%, 24%, and then 37% ethanol. Chow fed control rats were also studied. Rats were monitored daily to ensure equivalent food consumption and maintenance of body weight. During the last 3 weeks of the experiment while being maintained on either the 0% or 37% ethanol-containing liquid diets, rats in both groups were administered twice weekly (Mondays and Thursdays) intra-peritoneal (i.p.) injections of vehicle (saline), a PPAR-α (GW7647; 25 μg/kg), PPAR δ (L-165,041; 2 μg/kg), or PPAR-γ (F-L-Leu; 20 μg/kg) agonist (CalBiochem, Carlsbad, Calif.). At the conclusion of the experiment, rats were anesthetized with vaporized isofluorane (SurgiVet, Inc. Waukesha, Wis.), and liver and blood were harvested for analysis. Liver tissue samples were immersion fixed in Histochoice (Amresco Corp., Solon, Ohio) and embedded in paraffin. Adjacent histological sections were stained with Hematoxylin and Eosin or Gomori's Trichrome and examined under code. In addition, liver tissue samples were snap-frozen in a dry ice methanol bath and then stored at −80° C. for later mRNA and protein studies. Throughout the experiment, rats were housed under humane conditions and kept on a 12-hour light/dark cycle with free access to food. All experiments were performed in accordance with protocols that conform to guidelines established by the National Institutes of Health and were approved by Institutional Animal Care and Use Committee at the Lifespan-Rhode Island Hospital.
Total RNA was extracted from liver tissue using TRIzol® reagent (Invitrogen, Carlsbad, Calif.) according to the manufacturer's protocol. RNA concentrations and purity were determined from the absorbances measured at 260 nm and 280 nm. RNA (2 μg) was reverse transcribed using the AMV First Strand cDNA synthesis kit (Roche Diagnostics Corporation, Indianapolis, Ind.) and random oligodeoxynucleotide primers. Quantitative reverse transcriptase polymerase chain reaction (qRT-PCR) assays were used to measure steady-state levels of specific mRNA transcripts. PCR amplifications were performed in 20 μl reactions containing cDNA generated from 2.5 ng of original RNA template, 300 nM each of gene specific forward and reverse primer (Table 2), and 10 μl of 2× QuantiTect SYBR Green PCR Mix (Qiagen Inc, Valencia, Calif.). The amplified signals were detected continuously with the Mastercycler ep realplex instrument and software (Eppendorf AG, Hamburg, Germany). The amplification protocol used was as follows: initial 15-minutes denaturation and enzyme activation at 95° C., 45 cycles of 95° C.×15 sec, 55°-60° C.×30 sec, and 72° C.×30 sec. Annealing temperatures were optimized using the temperature gradient program provided with the Mastercycler ep realplex software.
In preliminary studies, SYBR Green-labeled PCR products were evaluated by agarose gel electrophoresis, and authenticity was verified by nucleic acid sequencing. Complementary (c) DNAs were cloned into PCR-II vectors (Invitrogen, Carlsbad, Calif.). […] Serial dilutions of recombinant plasmid DNA containing target sequences were used as standards in PCR reactions, and regression lines generated from the Ct values of the standards were used to calculate mRNA abundance. Relative mRNA expression was expressed as the ng ratio of specific mRNA to ribosomal (r) 18S measured in the same samples because 18S is highly abundant and the levels are not modulated with disease state. Statistical comparisons were made using the calculated mRNA/18S ratios. […]

[2] = test system: Long-Evans male rats fed a 37% ethanol liquid diet; assay: Liver regeneration by BrdU incorporation after 2/3 partial hepatectomy in chronic ethanol fed rats; conditions: for increase in BrdU labeling: 24 hours after 2/3 hepatectomy, compared to ethanol fed animals; for liver regeneration (BrdU incorporation): after 2/3 hepatectomy
Method: An isocaloric (sucrose substituted for ethanol) diet was administered to pair fed control animals. After three weeks, both groups of rats were injected with either PPAR-α, γ, or δ agonists or saline as a control. […] The […] were given IP injections twice a week. At 6 weeks, the animals underwent 2/3 partial hepatectomy. The removed liver was used for histology, measurement of lipid peroxidation, DNA damage and insulin/IGF signaling as described below. Following ⅔ hepatectomy, the liver remnants were harvested 18, 24, 30 and 48 hours later to assess the regenerative response. To do this, animals were injected IP with BrdU 2 hours before harvest to measure its incorporation into hepatic nuclei as an index of DNA synthesis.

AAH and GAPDH = assay: ELISA of AAH and GAPDH immunoreactivity in liver
Excerpt: as §1
ELISAs were used to measure immunoreactivity corresponding to AAH, GAPDH and β-actin (negative control). ELISAs were performed in 96-well opaque polystyrene plates (Nalge Nunc International, Rochester, N.Y.). RIPA protein extracts diluted in TBS (40 ng/100 μl) were adsorbed to the bottoms of the wells by overnight incubation at 4° C. After rinsing in TBS, the wells were blocked for 4 hours with 250 μl/well of 2% BSA in TBS. The proteins were then incubated with primary antibody (0.01-0.1 μg/ml) for 1 hour at room temperature. Immunoreactivity was detected with HRP-conjugated secondary antibody (1:10000; Pierce) and the Amplex Red soluble fluorophore (Molecular Probes). […] Binding specificity was determined from parallel negative control incubations with non-relevant antibodies, or with the primary or secondary antibody omitted. The mean levels of specific AAH, GAPDH, and β-actin immunoreactivity were used for inter-group statistical comparisons.

[3] = control livers, relative to vehicle (not statistically significant)
[4] = ethanol-exposed livers, relative to vehicle (statistically significant)

| Structure (SMILES) | extents of micro- and macrosteatosis (Long Evans rats) | liver histology (hepatic architecture) (Long Evans rats) | KCR mRNA [1, 3] | collagen mRNA ([1]; controls) | desmin mRNA ([1]; ethanol-exposed livers) | KCR mRNA [1, 4] | GFAP mRNA ([1]; ethanol-exposed rats) | ASBT mRNA ([1]; ethanol-fed rats) | albumin mRNA ([1]; ethanol-fed rats) | collagen mRNA ([1]; ethanol-fed rats) | increase in BrdU labeling [2] | liver regeneration (BrdU incorporation) [2] | AAH expression (ELISA) (AAH and GAPDH; control livers) | GAPDH expression (ELISA) (AAH and GAPDH; ethanol-exposed livers) | desmin mRNA ([1]; control group) | ASBT mRNA ([1]; control livers) | albumin mRNA ([1]; control livers) | other results |
| --- | --- | --- | --- | --- | --- | --- | --- | --- | --- | --- | --- | --- | --- | --- | --- | --- | --- | --- |
| CC(C)(Sc1ccc(CCN(CCCCC2CCCCC2)C(=O)NC2CCCCC2)cc1)C(=O)O [PPAR-α, GW7647] | overtly reduced | reduced the disordered architecture; also recorded: strikingly reduced the ethanol-associated architectural disarray and steatosis | increased | increased | no significant effect | increased | significantly increased | significantly increased; also recorded: normalized | significantly increased; also recorded: normalized | further increased | approximately 20% | more modest beneficial effects | no significant effect | no significant effect | – | – | – | liver histology (Long Evans rats; control rats, relative to vehicle-treated controls): no detectable histological changes in liver; also recorded: no detectable effects on liver histology; GFAP mRNA ([1]; control rats): significantly increased; GAPDH expression (ELISA) (AAH and GAPDH; control livers): no significant effect; AAH expression (ELISA) (AAH and GAPDH; ethanol-exposed livers): no significant effect |
| CC(C)C[C@H](NC(=O)OCC1c2ccccc2-c2ccccc21)C(=O)O [PPAR-γ, F-L-Leu] | overtly reduced | reduced the disordered architecture; also recorded: most striking improvements in liver histology; also recorded: strikingly reduced the ethanol-associated architectural disarray and steatosis; also recorded: more effective than the PPAR-α agonist in restoring hepatic architecture | increased | – | significantly increased | increased | significantly increased | did not significantly alter | did not significantly alter | significantly reduced | approximately 20% | – | slightly reduced | significantly increased | significantly reduced | decreased | significantly increased | – |
| CCCc1c(OCCCOc2ccc(OCC(=O)O)cc2)ccc(C(C)=O)c1O [PPAR-δ, L-165,041] | overtly reduced | reduced the disordered architecture; also recorded: most striking improvements in liver histology; also recorded: strikingly reduced the ethanol-associated architectural disarray and steatosis; also recorded: more effective than the PPAR-α agonist in restoring hepatic architecture | increased | increased | no significant effect | increased | – | did not significantly alter; also recorded: normalized | significantly increased; also recorded: normalized | significantly reduced | – | essentially restored liver regeneration to levels seen in normal control animals; also recorded: returns the liver regenerative response to normal levels; also recorded: more modest beneficial effects | slightly reduced | significantly increased | significantly reduced | decreased | significantly increased | – |
